{
  "source": "patent US10946383B2",
  "about": "“Oligonucleotide encoded chemical libraries” (Plexium, Inc., priority 2017, dated 2021)",
  "target": "Cathepsin-D protease (Homo sapiens, UniProt P07339)",
  "sequence (P07339 65-412)": "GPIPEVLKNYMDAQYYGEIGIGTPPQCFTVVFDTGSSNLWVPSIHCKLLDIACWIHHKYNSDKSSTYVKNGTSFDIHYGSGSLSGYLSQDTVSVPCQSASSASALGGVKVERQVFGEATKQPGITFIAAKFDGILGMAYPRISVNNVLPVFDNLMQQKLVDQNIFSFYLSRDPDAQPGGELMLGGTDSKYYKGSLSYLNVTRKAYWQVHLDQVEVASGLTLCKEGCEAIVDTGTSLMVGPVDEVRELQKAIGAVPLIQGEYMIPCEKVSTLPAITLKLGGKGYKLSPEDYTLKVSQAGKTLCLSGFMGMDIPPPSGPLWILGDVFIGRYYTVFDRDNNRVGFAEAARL",
  "test": "Cathepsin-D protease inhibition assay in picowells with bead-released compound and Peptide Q-Fluor substrate",
  "format": "biochemical",
  "conditions": "compound released from 10 μm TentaGel beads by UV (365 nm, 77 J/cm^2) to approximately 13 μM; 30 min, 37° C.",
  "data": [
    {"smiles": "CC(C)[C@H](NC(=O)OCC1c2ccccc2-c2ccccc21)C(=O)O", "note": "[negative control beads, Fmoc-Valine]", "values": [
      {"measurement": "Cathepsin-D inhibition (fluorescence of cleaved Peptide Q-Fluor substrate)", "result": "no Cathepsin-D inhibition"}
    ]}
  ]
}
